Source: patent US8299074B2, “P38 MAP kinase inhibitors” (RespiVert Ltd., priority 2008, dated 2012)
Where two headings read alike, the source gives them in different places.

Key:
BEAS2B cells = assay: Poly I:C-induced ICAM-1 induction in BEAS2B cells; type: cell-based; conditions: Homo sapiens, BEAS-2B, read-out: BEAS2B (polyIC) ICAM1 IC50
Method in brief: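 Poly I:C (1 ug/ml) transfected into BEAS2B cells after 2 h compound pre-incubation. Surface ICAM-1 measured by cell-based ELISA 18 h post-transfection (HRP, OD450–655), corrected for cell number by OD595.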

p38 MAPK alpha (MAPK14) = target: T1, p38 MAPK alpha (MAPK14) (Homo sapiens, UniProt Q16539); assay: Enzyme inhibition assay, p38 MAPK alpha (FRET, Z-LYTE, via MAPKAP-K2); type: biochemical; conditions: read-out: Enzyme p38α IC50
T1 construct: purchased Invitrogen

THP-1 cells = assay: LPS-induced TNF alpha release in THP-1 cells; type: cell-based; conditions: Homo sapiens, THP-1, read-out: THP-1 (LPS) TNFα IC50
Experimental: LPS-Induced TNF Alpha Release in THP-1 Cells: Potency […] Coli; O111:B4, Sigma) for 4 hr and the supernatant collected for determination of TNFα concentration by sandwich ELISA (Duo-set, R&D systems). The inhibition of TNFα production was calculated at each concentration by comparison with vehicle control.

U937 cells [1] = assay: LPS-induced IL-8 release in U937 cells; type: cell-based; conditions: Homo sapiens, read-out: DU937 (LPS) IL-8 IC50
Method in brief: (§1)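 U937 cells differentiated with PMA (100 ng/ml) for 48 to 72 hours, pre-treated with compound for 2 hrs, then stimulated with E. coli O111:B4 LPS for 4 hrs. Supernatant TNFα and IL-8 measured by sandwich ELISA; inhibition at each concentration versus vehicle control.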

[2] = test system: Differentiated U937 cells; assay: MTT assay (cell viability); type: cell-based, human
Method in brief: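 Differentiated U937 cells pre-incubated with compound 4 h in 5% FCS or 24 h in 10% FCS; MTT read at 550 nm after DMSO solubilisation. Percentage loss of viability relative to 0.5% DMSO vehicle; apparent increases appear as negative percentages.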

U937 cells [3] = assay: LPS-induced TNF alpha release in U937 cells; type: cell-based; conditions: Homo sapiens; read-out: DU937 (LPS) TNFα REC50
Method in brief: as §1

[4] = Table 3, first MTT column, loss of cell viability at 1 μg/ml
[5] = Table 3, second MTT column, loss of cell viability at 1 μg/ml
[6] = Table 1, MTT, loss of cell viability at 1 μg/ml
[7] = Table 1, first MTT column, loss of cell viability at 1 μg/ml

T1 sequence (Q16539 whole entry): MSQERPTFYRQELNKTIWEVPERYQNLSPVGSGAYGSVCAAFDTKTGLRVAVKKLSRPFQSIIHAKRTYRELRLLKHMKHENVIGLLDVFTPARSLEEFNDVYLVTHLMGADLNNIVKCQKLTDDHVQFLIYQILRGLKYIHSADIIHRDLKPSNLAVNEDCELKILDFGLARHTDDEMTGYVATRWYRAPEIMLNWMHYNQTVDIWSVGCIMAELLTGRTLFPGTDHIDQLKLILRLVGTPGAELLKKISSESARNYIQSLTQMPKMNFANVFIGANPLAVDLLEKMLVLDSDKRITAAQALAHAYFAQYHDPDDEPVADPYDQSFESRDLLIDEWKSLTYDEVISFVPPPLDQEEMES

SMILES | IC50 (BEAS2B cells; Table 3) [nM] | IC50 (p38 MAPK alpha (MAPK14); Table 3) [nM] | IC50 (THP-1 cells; Table 3) [nM] | IC50 (U937 cells [1]; Table 3) [nM] | DU937 (cell viability) MTT assay 4 h [2, 4] | DU937 (cell viability) MTT assay 4 h [2, 5] | EC50 (U937 cells [3]) [nM] | IC50 (BEAS2B cells; Table 1) [nM] | IC50 (p38 MAPK alpha (MAPK14); Table 1) [nM] | IC50 (THP-1 cells; Table 1) [nM] | IC50 (U937 cells [1]; Table 1) [nM] | DU937 (cell viability) MTT assay 4 h ([2]; Table 1, MTT, loss of cell viability, test conducted at 10 μg/ml) | DU937 (cell viability) MTT assay 4 h ([2]; Table 1, first MTT column, loss of cell viability, test conducted at 10 μg/ml) | DU937 (cell viability) MTT assay 4 h [2, 6] | DU937 (cell viability) MTT assay 4 h [2, 7]
Cc1ccc(-n2nc(C(C)(C)C)cc2NC(=O)Nc2ccc(Oc3ccnc(NC(=O)N4CCC(O)CC4)c3)c3ccccc23)cc1 [Example 51, N-(4-(4-(3-(3-tert-Butyl-1-p-tolyl-1H-pyrazol-5-yl)ureido)naphthalen-1-yloxy)pyridin-2-yl)-4-hydroxypiperidine-1-carboxamide] | < 10 | < 10 | < 10 | < 10 | − (<=30%) | + (>30%) | < 10 | – | – | – | – | – | – | – | –
Cc1ccc(-n2nc(C(C)(C)C)cc2NC(=O)Nc2ccc(Oc3ccnc(NC(=O)NCCCn4ccnc4)c3)c3ccccc23)cc1 [Example 52, N-(3-(Imidazol-1-yl)propyl)-N′-4-(4-(3-(3-tert-butyl-1-p-tolyl-1H-pyrazol-5-yl)ureido)naphthalen-1-yloxy)pyridin-2-ylurea] | < 10 | < 5000 | < 10 | < 10 | − (<=30%) | − (<=30%) | < 10 | – | – | – | – | – | – | – | –
Cc1ccc(-n2nc(C(C)(C)C)cc2NC(=O)Nc2ccc(Oc3ccnc(NC(=O)NCC(=O)N4CCCC4)c3)c3ccccc23)cc1 [Example 53, N-(2-(3-(4-(4-(3-(3-tert-Butyl-1-p-tolyl-1H-pyrazol-5-yl)ureido)naphthalen-1-yloxy)pyridin-2-yl)ureido)acetyl)pyrrolidine] | < 10 | < 10 | < 10 | < 5000 | − (<=30%) | − (<=30%) | < 10 | – | – | – | – | – | – | – | –
Cc1ccc(-n2nc(C(C)(C)C)cc2NC(=O)Nc2ccc(Oc3ccnc(NC(=O)N4CC[C@@H](N(C)C)C4)c3)c3ccccc23)cc1 [Example 54, (R)—N-(4-(4-(3-(3-tert-Butyl-1-p-tolyl-1H-pyrazol-5-yl)ureido)naphthalen-1-yloxy)pyridin-2-yl)-3-(dimethylamino)pyrrolidine-1-carboxamide] | < 10 | < 10 | < 10 | < 10 | − (<=30%) | − (<=30%) | < 10 | – | – | – | – | – | – | – | –
Cc1ccc(-n2nc(C(C)(C)C)cc2NC(=O)Nc2ccc(Oc3ccnc(NC(=O)N4CCCC4)c3)c3ccccc23)cc1 [Example 55, N-(4-(4-(3-(3-tert-Butyl-1-p-tolyl-1H-pyrazol-5-yl)ureido)naphthalen-1-yloxy)pyridin-2-yl)pyrrolidine-1-carboxamide] | < 10 | < 10 | < 10 | < 10 | − (<=30%) | − (<=30%) | < 10 | – | – | – | – | – | – | – | –
Cc1ccc(-n2nc(C(C)(C)C)cc2NC(=O)Nc2ccc(Oc3ccnc(NC(=O)NCC(=O)NCCN4CCOCC4)c3)c3ccccc23)cc1 [Example 57, 2-(3-(4-(4-(3-(3-tert-Butyl-1-p-tolyl-1H-pyrazol-5-yl)ureido)naphthalen-1-yloxy)pyridin-2-yl)ureido)-N-(2-morpholinoethyl)acetamide] | < 5000 | < 10 | < 10 | < 5000 | − (<=30%) | − (<=30%) | < 5000 | – | – | – | – | – | – | – | –
Cc1ccc(-n2nc(C(C)(C)C)cc2NC(=O)Nc2ccc(Oc3ccnc(NC(=O)NCC(=O)N4CCN(C)CC4)c3)c3ccccc23)cc1 [Example 61, 1-(2-(3-(4-(4-(3-(3-tert-Butyl-1-p-tolyl-1H-pyrazol-5-yl)ureido)naphthalen-1-yloxy)pyridin-2-yl)ureido)acetyl)-4-methylpiperazine] | < 10 | < 10 | < 10 | < 10 | − (<=30%) | − (<=30%) | < 10 | – | – | – | – | – | – | – | –
COCCNC(=O)CNC(=O)Nc1cc(Oc2ccc(NC(=O)Nc3cc(C(C)(C)C)nn3-c3ccc(C)cc3)c3ccccc23)ccn1 [Example 62] | < 10 | < 10 | < 10 | < 10 | − (<=30%) | − (<=30%) | < 10 | – | – | – | – | – | – | – | –
COCC(=O)Nc1cc(Oc2ccc(NC(=O)Nc3cc(C(C)(C)C)nn3-c3ccc(C)cc3)c3ccccc23)ncn1 [Example 63, N-(6-(4-(3-(3-tert-Butyl-1-p-tolyl-1H-pyrazol-5-yl)ureido)naphthalen-1-yloxy)pyrimidin-4-yl)-2-methoxyacetamide] | – | – | – | – | – | – | < 10 | < 5000 | < 10 | < 10 | < 10 | +^$ (>30%) | −^$ (<=30%) | – | –
COCC(=O)Nc1nccc(Oc2ccc(NC(=O)Nc3cc(C(C)(C)C)nn3-c3ccc(C)cc3)c3ccccc23)n1 [Example 65, N-(4-(4-(3-(3-tert-Butyl-1-p-tolyl-1H-pyrazol-5-yl)ureido)naphthalen-1-yloxy)pyrimidin-2-yl)-2-methoxyacetamide] | – | – | – | – | – | – | < 10 | < 5000 | < 5000 | < 10 | < 5000 | – | – | − (<=30%) | − (<=30%)
Cc1ccc(-n2nc(C(C)(C)C)cc2NC(=O)Nc2ccc(Oc3ccnc(NC(N)=O)n3)c3ccccc23)cc1 [Example 66, 3-(4-(4-(3-(3-tert-Butyl-1-p-tolyl-1H-pyrazol-5-yl)ureido)naphthalen-1-yloxy)pyrimidin-2-yl)urea] | – | – | – | – | – | – | < 10 | < 5000 | < 5000 | < 10 | < 10 | – | – | − (<=30%) | − (<=30%)
CNC(=O)Nc1nccc(Oc2ccc(NC(=O)Nc3cc(C(C)(C)C)nn3-c3ccc(C)cc3)c3ccccc23)n1 [Example 67, 1-Methyl-3-(4-(4-(3-(3-tert-butyl-1-p-tolyl-1H-pyrazol-5-yl)ureido)naphthalen-1-yloxy)pyrimidin-2-yl)urea] | – | – | – | – | – | – | < 10 | < 5000 | < 5000 | < 10 | < 10 | – | – | − (<=30%) | − (<=30%)
Cc1ccc(-n2nc(C(C)(C)C)cc2NC(=O)Nc2ccc(Oc3ccnc(NC(=O)N(C)C)n3)c3ccccc23)cc1 [Example 68, 1,1-Dimethyl-3-(4-(4-(3-(3-tert-butyl-1-p-tolyl-1H-pyrazol-5-yl)ureido)naphthalen-1-yloxy)pyrimidin-2-yl)urea] | – | – | – | – | – | – | < 10 | < 10 | < 10 | < 5000 | < 10 | – | – | − (<=30%) | − (<=30%)
